Measured values as given in patent publication US8399511B2, “Two types of crystalline of pinocembrin, their preparation and their use for manufacture of pharmaceutical compositions” (CSPC Zhongqi Pharmaceutical Technology (Shijiazhuang) Co., …, priority 2008, dated 2013).

Experiment: In vivo absorption and blood concentration after oral administration of pinocembrin crystalline forms
Set-up: species or system SD rats
Settings: for Blood concentration of pinocembrin: fasted SD rats, arterial blood, HPLC, group average, 50 mg/kg
Description: • 1. Monocrystal X-ray analysis • Instrument: MAC DIP-2030K area detector • Test condition: tube voltage: 50 KV, tube flow: 80 mA, ω scanning, MoKα, 2θ≦50.0°, scan range: 0-180°, pivot angle: 6°, step: 6°, scan rate: 1.8°/min. • 2. Powder X-ray analysis • Instrument: Rigaku D/max 2550 powder X-ray diffractometer • Test conditions: voltage: 40 KV, current: 150 mA, scan rate: 8°/min. • 3. DSC analysis • Instrument type: Seiko Instruments Inc. Differential Scanning Calorimeter • Test conditions: purge gas: N2, heating rate: 10° C. /min. • Temperature range: 25-250° C. • 4. IR absorbance spectra • Instrument Nicolet FT-IR spectrometer: IMPACT 400 • Test conditions: KBr pellet • 5. HPCL analysis • Instrument: SHIMADZU LC-10Avp high performance liquid chromatography, SPD-M10Avp diode array detector, CLASS-VP chromatography data system; column: Alltch C18(5μ, 150×4.6 mm); test conditions: column temperature: room temperature; wavelength: 290 nm; mobile phase: methanol/phosphate saline pH 3.0 (64/36); flow rate : 1.0 mL/min; injection volume: 20 μL; injection concentration: 500.0 μg/mL Preparation 1: Synthesis of Pinocembrin Sample
18 of SD rats, female and male each half, with body weight of 230˜250 g, were randomized into 3 groups, with 6 rats each group and female half. After 10 hours of fasting but free water intake, the rats were administrated with pinocembrin solid active ingredient powder of α, β or 1:1 (α+β) mixed crystalline forms, at a dose of 50 mg/kg to stomach. Then the arterial blood samples at different times were taken and the contents of pinocembrin were determined.

[1] = 10 min after oral (to stomach) 50 mg/kg solid powder
[2] = 20 min after oral (to stomach) 50 mg/kg solid powder
[3] = 30 min after oral (to stomach) 50 mg/kg solid powder
[4] = 40 min after oral (to stomach) 50 mg/kg solid powder

Blood concentration of pinocembrin [1] | Blood concentration of pinocembrin [2] | Blood concentration of pinocembrin [3] | Blood concentration of pinocembrin [4] | Blood concentration compared with β crystalline form (same dosage (50 mg/kg) by oral administration, rats) | Blood concentration of pinocembrin (10 min after oral (to stomach) 50 mg/kg solid powder, listed as β crystalline from) | Blood concentration of pinocembrin (20 min after oral (to stomach) 50 mg/kg solid powder, listed as β crystalline from) | Blood concentration of pinocembrin (30 min after oral (to stomach) 50 mg/kg solid powder, listed as β crystalline from) | Blood concentration of pinocembrin (40 min after oral (to stomach) 50 mg/kg solid powder, listed as β crystalline from) | Uptake rate by organism relative to α crystalline form (rat, in vivo) | SMILES
8.5 peak area value | 15.6 peak area value | 7.9 peak area value | 7.1 peak area value | – | – | – | – | – | – | O=C1C[C@@H](c2ccccc2)Oc2cc(O)cc(O)c21 (stereo in doubt) [1:1 (α + β) crystalline forms, 5,7-dihydroxy-2-phenyl-4-chromanone]
3.8 peak area value | 9.7 peak area value | 4.4 peak area value | 3.5 peak area value | obviously lower | – | – | – | – | – | O=C1C[C@@H](c2ccccc2)Oc2cc(O)cc(O)c21 (stereo in doubt) [α crystalline form, 5,7-dihydroxy-2-phenyl-4-chromanone]
– | – | – | – | – | 13.2 peak area value | 48.6 peak area value | 14.6 peak area value | 14.2 peak area value | ≥ 2 times | O=C1C[C@@H](c2ccccc2)Oc2cc(O)cc(O)c21 (stereo in doubt) [β crystalline form, 5,7-dihydroxy-2-phenyl-4-chromanone]
